This is an account of results in patent US9861592B2, “Methods and compositions for treating neurodegenerative diseases” (Golden Biotechnology Corporation, priority 2012, dated 2018).

Molecules are shown by their SMILES. Converted amounts (≈) assume the structure as drawn.

The test concerns PC12 cells. Put plainly: CCK-8 cell viability assay, titration of Compound 1 in NGF-induced PC12 cells. Format: cell-based. Conditions: Rattus norvegicus, PC-12, 48 h. The procedure: Rat pheochromocytoma PC12 cells, purchased from Bioresource Collection and Research Center (BCRC), were cultured in RPMI1640 medium (Gibco, MD) containing 10% fetal calf serum, 5% horse donor serum, 100 μg/ml streptomycin, 100 units/ml penicillin, 2 mM L-glutamine, and maintained in humidified incubator at 37° C. with 5% CO2. Cells were transferred twice a week. Experiments were carried out in 96-well plates coated with poly-D-lysine (1 mg/mL) to assist cell adhesion. PC12 cells were grown on medium with mouse submaxillary-gland nerve growth factor (NGF 2.5S, 100 ng/ml; Invitrogen, Carlsbad, Calif.) for 48 h to induce differentiation into neuron-like cells before all experiments conducted in this study.
To optimize the exemplary Compound 1 concentration for NGF-induced PC12 neural model, titration experiments were performed to determine the IC50 values of Compound 1 in PC12. PC12 Cells (1×10^4 cells) were incubated with various concentrations of Compound 1 (0.001, 0.01, 0.1, 1, 10, 100 μg/ml in a 10% serum-supplemented medium; 0.3, 1, 3, 10, 30, 100 μg/ml in serum-free medium) for 48 h.
The viability of cells was measured using the Cell Counting Kit-8 (CCK-8, Enzo, Life Sciences). A highly water-soluble tetrazolium salt, WST-8, is reduced by dehydrogenases in cells to give a yellow-colored product (formazan), which is soluble in the culture medium. The amount of the fomazan dye generated by the activity of dehydrogenases in cells is directly proportional to the number of living cells. After treatments, the CCK-8 solution was added to each well of plates and incubates the plate for 4 h in the incubator. The concentration of the formazan product was determined spectrophotometrically at an absorbance wavelength 450 nm and cell viability was expressed as a percentage of the corresponding control.
On the technique in general: Formazan colour is commonly taken as a measure of viable cells.

For the molecule `COC1=C(OC)C(O)C(C/C=C(\C)CC/C=C(\C)CCC=C(C)C)C(C)C1=O` (stereo not drawn) [Compound 1, 4-hydroxy-2,3-dimethoxy-6-methyl-5-(3,7,11-trimethyldodeca-2,6,10-trienyl)cyclohex-2-enone], the IC50 (commonly the concentration at which inhibition is half-maximal) worked out at 58 µg/mL (≈ 148 µM) (PC12, 10% serum supplemented media, unit as printed in b23); 58 µg/mL (≈ 148 µM) (PC12, 10% serum supplemented media, unit as printed in b151); 13.4 µg/mL (≈ 34.3 µM) (PC12, serum-free media).
